Reference: PubChem BioAssay (NCI)
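All cell lines were grown in 96-well plates and treated with compound for 48 hours. The concentration for full growth arrest is given as TGI.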

Assays:
Assay in all cases: NCI tumour cell line growth inhibition, 48 h
SK-MEL-28 melanoma = tested on: SK-MEL-28 melanoma
HCC-2998 colon = tested on: HCC-2998 colon
M14 melanoma = tested on: M14 melanoma
HOP-92 NSCLC = tested on: HOP-92 NSCLC
SW-620 colon = tested on: SW-620 colon
MCF7 breast = tested on: MCF7 breast
HCT-15 colon = tested on: HCT-15 colon
UACC-62 melanoma = tested on: UACC-62 melanoma
KM12 colon = tested on: KM12 colon
NCI/ADR-RES ovarian = tested on: NCI/ADR-RES ovarian

Row | SMILES | TGI (SK-MEL-28 melanoma) [µM] | TGI (HCC-2998 colon) [µM] | TGI (M14 melanoma) [µM] | TGI (HOP-92 NSCLC) [µM] | TGI (SW-620 colon) [µM] | TGI (MCF7 breast) [µM] | TGI (HCT-15 colon) [µM] | TGI (UACC-62 melanoma) [µM] | TGI (KM12 colon) [µM] | TGI (NCI/ADR-RES ovarian) [µM]
1 | COc1cc(C2c3cc4c(cc3OC(NCCO)C2C)OCO4)cc(OC)c1OC (stereo not drawn) | > 100 | > 23.2 | > 45 | 93 | > 100 | > 100 | > 34.8 | > 100 | > 70.2 | > 100
2 | CCc1nc2ccc(NCCN(C)C)c3c(=O)c4ccccc4n1c23 | 9.43 | 5.8 | 4.68 | 5.26 | 4.99 | 21.1 | 4.66 | 8.06 | 6.42 | 3.38
3 | COc1ccc(C(C2=C(O)COC2=O)c2cc3c(cc2O)OCO3)cc1OC (stereo not drawn) | > 100 | > 100 | > 100 | > 100 | > 100 | > 100 | > 100 | > 100 | > 100 | > 100
4 | COc1cc(N(Cc2ccc3oc(=O)c(-c4ccccc4)nc3c2)Cc2ccc3oc(=O)c(-c4ccccc4)nc3c2)cc(OC)c1OC | > 10 | > 10 | > 10 | > 10 | > 10 | > 10 | > 10 | > 10 | > 10 | > 10
5 | Cc1ccc2c(c1)C(=O)C(C1OC(=O)c3ccccc31)C2 (stereo not drawn) | > 100 | > 100 | > 100 | > 100 | > 100 | > 100 | > 100 | > 100 | > 100 | > 100
6 | C/C1=C\C=C(\C(C)C)CC/C(C(=O)O)=C\CC/C(C)=C/CC1 | 56.3 | 33.8 | 63.6 | 40.5 | > 100 | 34.8 | 51.1 | 25.8 | 41.8 | 76.2
7 | S=C(Nc1ccc2cn[nH]c2c1)Nc1ccc2cn[nH]c2c1 | > 100 | > 100 | > 100 | > 100 | > 100 | > 100 | > 100 | > 100 | > 100 | > 100
8 | CCOC(=O)Cc1nc2c(N)ncnc2n1C1OC(COC(C)=O)C(OC(C)=O)C1OC(C)=O (stereo not drawn) | > 100 | > 100 | > 100 | > 100 | > 100 | > 100 | > 100 | > 100 | > 100 | > 100
9 | O=C1Nc2ccccc2/C1=c1\[nH]c(=O)/c(=C\c2ccc(OCc3ccccc3)cn2)[nH]c1=O | > 100 | > 100 | > 100 | 76.8 | > 100 | > 100 | > 100 | > 100 | > 100 | > 100
10 | CC(=O)Oc1ccc(/C=C/C(=O)O[C@@H](C(=O)O)[C@@H](OC(=O)/C=C/c2ccc(OC(C)=O)c(OC(C)=O)c2)C(=O)O)cc1OC(C)=O | > 100 | > 100 | > 100 | > 100 | > 100 | > 100 | > 100 | > 100 | > 100 | > 100
11 | O=C(CCc1ccccc1)On1c(-c2ccccc2)nc2ccccc2c1=S | > 100 | 27.8 | 44.7 | > 100 | > 100 | > 100 | 67.5 | 36.9 | 24 | 79.1
12 | CNc1ncc(-c2nnnn2-c2ccccc2)c(CN(C)C)n1 | > 100 | > 100 | > 100 | > 100 | > 100 | > 100 | > 100 | > 100 | > 100 | > 100
13 | O=C(NC(=S)NC(=O)c1cc(O)c(O)c(O)c1)c1cc(O)c(O)c(O)c1 | 73.9 | 87.9 | 98.6 | > 100 | > 100 | > 100 | 67.8 | 49.4 | 70.5 | 70.4
14 | O=c1[nH]cnc2c1nnn2CCCCCCCCCCCCn1nnc2c(=O)[nH]cnc21 | > 100 | > 100 | > 100 | 53 | > 100 | > 100 | > 100 | > 78 | > 100 | > 100
15 | CN(C)c1cccc(NC2=NCCO2)c1 | > 100 | > 100 | > 100 | > 100 | > 100 | > 100 | > 100 | > 100 | 78.6 | > 100
16 | CN(C)/N=C1\CC(c2ccccc2)C(C#N)(C#N)C1(C#N)C#N (stereo not drawn) | 46 | 33.1 | 34.3 | 29.7 | 36.2 | > 100 | 30.1 | 41.8 | > 100 | 72.1
17 | COc1ccc(/C=C/C2=NN(c3cccc(S(=O)(=O)O)c3)C3(C2)SCC(=O)N3c2nc3ccccc3s2)cc1 (stereo not drawn) | > 100 | > 100 | > 100 | > 100 | > 100 | > 100 | > 100 | > 100 | > 100 | > 100

Row | SMILES | TGI (SK-MEL-28 melanoma) [µM] | TGI (HCC-2998 colon) [µM] | TGI (M14 melanoma) [µM] | TGI (HOP-92 NSCLC) [µM] | TGI (SW-620 colon) [µM] | TGI (MCF7 breast) [µM] | TGI (HCT-15 colon) [µM] | TGI (UACC-62 melanoma) [µM] | TGI (KM12 colon) [µM] | TGI (NCI/ADR-RES ovarian) [µM]
18 | C[Si](C)(C)C1=C([Si](C)(C)C)C(Cl)(Cl)C1=O | 9.29 | 17.6 | 9.24 | 5.55 | 13.2 | 23.4 | 4.05 | 7.69 | 18.9 | 27.1
19 | c1cnc(N2CCN(Cc3c[nH]c4ccccc34)CC2)nc1 | > 100 | 38.9 | > 100 | > 100 | > 100 | 53.7 | > 100 | > 100 | 76.6 | > 100
20 | CC(=O)N1CCn2c1nc1cc(Cl)ccc12 | > 100 | > 100 | > 100 | 81.4 | > 100 | > 100 | > 100 | > 100 | > 100 | > 100
21 | C[Si](C)(c1ccccc1)[C@H]1CCCC=C1CCNC1c2ccccc2CCc2ccccc21 | > 100 | > 100 | > 100 | > 100 | > 100 | > 100 | > 100 | > 100 | > 100 | > 100
22 | COc1ccc(-n2sc3ncccc3c2=O)cc1 | 44.3 | > 100 | 41.3 | 58.6 | 79.6 | 49.1 | 44.2 | > 100 | 34.5 | 59.6
23 | CC(C)(C)N(Cc1ccc2c(c1)OCO2)C(=O)/C=C\Sc1ccccc1 | > 100 | > 100 | > 100 | 91 | > 100 | > 100 | > 100 | > 100 | > 100 | > 100
24 | CSC1NC(c2ccc(Cl)cc2)=C(C#N)C(=O)N1C1OCC(OC(C)=O)C(OC(C)=O)C1OC(C)=O (stereo not drawn) | > 100 | > 100 | > 100 | > 100 | > 100 | > 100 | > 100 | > 100 | > 100 | > 100
25 | COC(=O)c1ccc(Nc2nc3nc[nH]c3c(=O)[nH]2)cc1 | > 100 | > 100 | > 100 | > 100 | > 100 | > 100 | > 100 | > 100 | > 100 | > 100
26 | COC(OC)[C@@H]1OC[C@@H](O)[C@@H]1n1cnc2c(N)ncnc21 | > 100 | > 100 | > 100 | > 100 | > 100 | > 100 | > 100 | > 100 | > 100 | > 100
27 | O=C1Nc2ccccc2Nc2ccncc21 | > 100 | > 100 | – | > 100 | > 100 | > 100 | > 100 | > 100 | > 100 | > 100
28 | CCc1ccccc1NNc1cc(=O)[nH]c(=O)[nH]1 | 38 | 40.1 | 35.1 | 31.3 | 37.3 | 39.1 | – | 35.9 | 36 | > 100
29 | Fc1cccc(F)c1C1SCc2nc3ccc(Cl)cc3n21 (stereo not drawn) | > 100 | > 100 | > 100 | > 100 | > 100 | > 100 | > 100 | > 100 | > 100 | > 100
30 | COc1ccc(/C=N/n2cnc3[nH]c(C)c(Cc4ccccc4)c3c2=N)cc1 | > 100 | > 100 | > 100 | > 100 | > 100 | > 100 | > 100 | > 100 | > 100 | > 100
31 | C[N+]1(CCN[N+]2(C)CCCCC2)CCc2ccccc2C1 (stereo not drawn) | > 100 | > 100 | > 100 | > 100 | > 100 | > 100 | > 100 | > 100 | > 100 | > 100
32 | CCOc1cc(NC(C)=O)ccc1C(=O)NN1C(=O)CSC1c1ccccc1 (stereo not drawn) | > 100 | > 100 | > 100 | > 100 | > 100 | > 100 | > 100 | > 100 | > 100 | > 100
33 | O=[N+]([O-])c1ccc(O)c(/C=N/NC(=S)N2CCCCC2)c1 | > 100 | 34.1 | > 100 | 33 | > 59 | > 100 | 44.1 | > 30.5 | 40 | 3.85
